Values quoted from earlier work as cited in publication PMC9164236 (ACS Organic & Inorganic Au, 2022).

Structure (SMILES): CC[C@@H](C(=O)[C@@H](C)[C@@H](O)[C@H](C)[C@@H]1O[C@@H]([C@@H](CC)C(=O)O)CC[C@@H]1C)[C@H]1O[C@]2(C=C[C@@H](O)[C@]3(CC[C@@](C)([C@H]4CC[C@](O)(CC)[C@H](C)O4)O3)O2)[C@H](C)C[C@@H]1C [Sal, Salinomycin]
- Reduction of the proportion of CSCs relative to paclitaxel (breast CSCs): > 100 fold
- Stability in the presence of iron(III) chloride over time: degrade
